From EP4600262A1, “KERATIN YK93-5, PREPARATION METHOD, AND PHARMACEUTICAL COMPOSITION AND USE THEREOF” (INSTITUTE OF MATERIA MEDICA, CHINESE ACADEMY OF MEDICAL …, priority 2022, dated 2024)
Counter-ions that a name gives are not always drawn.

How the values were obtained:
B16F10 melanoma = conditions: CTX 0.1 g/kg once a week, YK93-5 2 g/kg daily
Protocol: • Preparation of experimental animals: The experimental animals were adapted to the experimental environment (temperature 22°C±2°C, relative humidity 50%±2%) for 1 day. • Subcutaneous inoculation of B16F10 cell suspension to replicate a mouse melanoma model: Under sterile conditions, the tumor block was removed, ground into tumor fluid, the concentration was adjusted with physiological saline to 2.58 × 10^6 /ml, and 0.2 ml was taken to evenly inoculate subcutaneously on the armpit back of mice. On the next day, the animals were randomly grouped and administration began (recorded as Day 0). […] On the day of treatment, weight was measured, 20µL of blood was obtained by taking blood from the eye socket and the blood routine analysis was performed, the tumor block was peeled off, weighed and photographed, and the tumor suppression rate was calculated.
The tumor suppression rate [(The average weight of the tumor in the normal control group - the average weight of the tumor in the experimental group) / The average weight of the tumor in the normal control group × 100 %] and average value, standard deviation and standard errors of tumor weight were calculated. The data from the groups were compared with each other by T.TEST, and P<0.05 was considered as a significant difference.

[1] = system: mouse prostatic hyperplasia model; experiment: mouse prostatic hyperplasia model (propionate testosterone, androgen loading); assay type: in vivo, Male Kunming mice; conditions: finasteride 1mg/kg, YK93-5 0.5g/kg
Protocol: • Animals: Male Kunming mice, weight: 18-20 grams • Drugs: propionate testosterone injection (Ningbo Second Hormon Factory); finasteride (Merck Sharp & Dohme, MSD), YK93-5 • Instruments: electronic balance, timer
• Normal control group; • Model group: Androgen loading Model; • Positive control group: finasteride (1mg/kg) group; • YK93-5 (0.5g/kg) group.
• Preparation of experimental animals: The experimental animals were adapted to the experimental environment (temperature 22°C±2°C, relative humidity 50%±2%) for 1 day. • Subcutaneous injection of propionate testosterone to replicate mice prostatic hyperplasia model: Mice were randomly grouped 10-12 in each group before the model being established. Propionate testosterone (0.01mg/kg) in soybean oil was injected subcutaneously, once a day for 30 consecutive days. Mice in the normal control group were injected subcutaneously with an equal volume of sodium carboxymethyl cellulose. Immediately after the model was established, finasteride 1mg/kg, or YK93-5 0.5g/kg were orally administered. Mice were weighed on the next day. After 30 days of administration, mice were weighed, executed. The prostate was excised through a median incision in the lower abdomen, the wet weight was weighed, and the prostate index was calculated by the wet weight of the prostate (mg)/body weight of the mouse (g). […] with 4% paraformaldehyde, embedded in paraffin, and cut into thin slices with the largest surface. Hematoxylin and eosin staining were used to examine the pathological changes of tissue slices.
The average value, standard deviation and standard error of the prostate index and pathological score in each group were calculated. The data from the groups were compared with each other by TTEST, and P<0.05 was considered as a significant difference.

mouse pain model = mouse pain model (1% acetic acid writhing); assay type: in vivo, Male Kunming mice; conditions: within 15 minutes after 1% acetic acid intraperitoneally; Tramadol Hydrochloride 50mg/kg, YK93-5 2g/kg by gavage once a day for 7 days
Protocol: 30 minutes after the last administration, 1% acetic acid was administered intraperitoneally, and the writhing times of mice within 15 minutes was recorded, and the inhibition rate of drug-induced writhing reaction was calculated. The observation criteria were concave abdominal cavity, extended hind limbs, and raised buttocks.
The inhibition rate was calculated by (Mean number of writhing reactions in the normal control group - Mean number of writhing reactions in the treatment group)/Mean number of writhing reactions in the normal control group *100%. The mean value, standard deviation, and standard error of the number of writhing was recorded, and the data from the groups were compared with each other by T.TEST, and P<0.05 was considered as a significant difference.

Protocol for Lewis lung cancer: • Preparation of experimental animals: The experimental animals were adapted to the experimental environment (temperature 22°C±2°C, relative humidity 50%±2%) for 1 day. • Subcutaneous inoculation of Lewis cell suspension to replicate mouse breast cancer model: The Lewis tumor tissue was ground into a suspension with a glass homogenizer, the tumor suspension was aspirated with a syringe, the number of live cells was calculated, the concentration of the cells was adjusted to 2.6*10^6/ml with physiological saline, and then the suspension was injected to the left armpit of the mouse with 0.2 ml/mouse. […] On the day of the treatment, the weight was measured, 20µl of blood was obtained from the orbital blood and the routine blood analysis was performed. The tumor blocks were stripped, weighed and photographed, and the tumor suppression rate was calculated.
The tumor suppression rate [(The average weight of the tumor in the normal control group - the average weight of the tumor in the experimental group) / The average weight of the tumor in the normal control group × 100 %] and the average value, standard deviation and standard errors of tumor weight were calculated. The data from the groups were compared with each other by T.TEST, and P<0.05 was considered as a significant difference.

## O=P1(N(CCCl)CCCl)NCCCO1 (centres unmarked) [Cyclophosphamide]
Lewis lung cancer; body weight after administration, cyclophosphamide 0.1 g/kg intraperitoneally single time, YK93-5 2 g/kg intragastric daily for 17 days
  Change of weight (g) After administration: 21.07 ± 1.61 g
Lewis lung cancer; body weight before administration
  Change of weight (g) Before administration: 20.52 ± 1.83 g
Lewis lung cancer; cyclophosphamide 0.1 g/kg intraperitoneally single time, YK93-5 2 g/kg intragastric daily for 17 days
  Tumor suppression (%): 91.22%
B16F10 melanoma
  Tumor weight: 0.26 ± 0.11 g

## CC(C)(C)NC(=O)[C@H]1CC[C@H]2[C@@H]3CC[C@H]4NC(=O)C=C[C@]4(C)[C@H]3CC[C@]12C [finasteride]
[1]; after 30 days of oral administration
  wet weight of the prostate: 40.4 ± 9.2 mg
[1]; compared with the model group, 30 days oral
  pathological damage of prostatic hyperplasia (histopathology, H&E): the trend of hyperplasia improves, but there is no statistical difference
[1]; wet weight of the prostate (mg)/body weight of the mouse (g), 30 days oral
  prostate index: 0.95±0.24

## COc1cccc(C2(O)CCCCC2CN(C)C)c1 (centres unmarked) [Tramadol Hydrochloride]
Mouse pain model
  Number of writhing: 1.75±4.56
